Results: US20110015198A1, “DIARYLMETHYLAMIDE DERIVATIVE HAVING MELANIN-CONCENTRATING HORMONE RECEPTOR ANTAGONISM” (BANYU PHARMACEUTICAL CO., INC., priority 2008, published 2011)

These compounds were tested against T1, human MCH-1R (Homo sapiens, UniProt Q99705) (assay: MCH binding inhibition test). Conditions: membrane samples from MCH-1R expressing CHO-K1 cells, 50 pM [125I]MCH, 25° C., one hour; read-out: IC50 (nM); 50% inhibition concentration (IC50 value) for specific [125I]MCH binding.
T1 construct: expressed in transfected cells; host or cells: CHO-K1 (American Type Culture Collection), plasmid vector pEF/myc/cyto
Source text: Pharmacological test example: MCH binding inhibition test A cDNA sequence encoding human MCH-1R [FEBS Letters, Vol. 398, 253 (1996); Biochimica et Biophisica Acta, Vol. 1401, 216 (1998)] was cloned to a plasmid vector pEF/myc/cyto (manufactured by Invitrogen). The obtained expression vector was transfected to a host cell CHO-K1 (American Type Culture Collection) using Lipofectamine Plus reagent (manufactured by Life Technology) to provide MCH-1R expression cells.
Membrane samples prepared from the MCH-1R expression cells were incubated with a test compound and 50 pM [^125I]MCH (manufactured by NEN) in an assay buffer (50 mM Tris buffer containing 10 mM magnesium chloride, 2 mM ethylenediamine tetraacetate, 0.01% bacitracin, and 0.2% bovine serum albumin; pH 7.4) at 25° C. for one hour, followed by filtration through a glass filter GF/C (manufactured by Wattman). The glass filter was washed with 50 mM Tris buffer (pH 7.4) containing 10 mM magnesium chloride, 2 mM ethylenediamine tetraacetate, and 0.04% Tween-20, and then the radioactivity on the glass filter was determined Non-specific binding was measured in the presence of 1 μM human MCH, and, with respect to each test compound, 50% inhibition concentration (IC50 value) for specific [^125I]MCH binding was determined.

T1 sequence (Q99705 whole entry): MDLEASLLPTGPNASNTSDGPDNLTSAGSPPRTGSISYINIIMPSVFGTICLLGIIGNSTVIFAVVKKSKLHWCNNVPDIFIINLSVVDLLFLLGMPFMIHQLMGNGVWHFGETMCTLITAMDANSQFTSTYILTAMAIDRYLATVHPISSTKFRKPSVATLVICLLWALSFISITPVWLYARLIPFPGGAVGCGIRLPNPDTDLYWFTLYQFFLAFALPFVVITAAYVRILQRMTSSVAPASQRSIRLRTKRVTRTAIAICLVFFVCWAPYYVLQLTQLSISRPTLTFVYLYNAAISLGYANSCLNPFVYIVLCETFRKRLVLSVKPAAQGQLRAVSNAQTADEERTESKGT

| Compound | IC50 [nM] |
| --- | --- |
| CN(C(=O)C(C)(C)O)C(c1ccc(F)c(F)c1)c1ccc(CN2CCC(c3ccc(F)nc3)CC2)cn1 (single isomer, unassigned) [Example 1-37, (R)— or (S)—N-[(3,4-difluorophenyl)(5-{[4-(6-fluoropyridin-3-yl)piperidin-1-yl]methyl}pyridin-2-yl)methyl]-2-hydroxy-N,2-dimethylpropanamide] | 17 |
| CC(NC(=O)C(F)F)(c1ccc(F)c(F)c1)c1ccc(CN2CCC(c3ccc(F)nc3)CC2)cn1 (single isomer, unassigned) [Example 1-58, (R)— or (S)—N-[1-(3,4-difluorophenyl)-1-(5-{[4-(6-fluoropyridin-3-yl)piperidin-1-yl]methyl}pyridin-2-yl)ethyl]-2,2-difluoroacetamide] | 1.7 |
| O=C1C(F)CCN1C(c1ccc(CN2CCC3(CC2)OCc2ccncc23)cc1)c1ccc(F)c(F)c1 (single isomer, unassigned) [Example 2-5, (3R)— or (3S)—[(R)— or (S)-1-{(3,4-difluorophenyl)[4-(1H,1′H-spiro[furo[3,4-c]pyridine-3,4′-piperidin]-1′-ylmethyl)phenyl]methyl}]-3-fluoropyrrolidin-2-one] | 0.18 |
| Cn1cc2c(cc1=O)C1(CCN(Cc3ccc(C(c4ccc(F)c(F)c4)N4CCCS4(=O)=O)cc3)CC1)OC2 (centres unmarked) [Example 1-20, 1′-{4-[(3,4-difluorophenyl)(1,1-dioxideisothiazolidin-2-yl)methyl]benzyl}-5-methyl-3,5-dihydro-6H-spiro[furo[3,4-c]pyridine-1,4′-piperidin]-6-one] | 2.9 |
| O=C1CCCN1C(c1ccc(CN2CCC3(CC2)OCc2ccncc23)cc1)c1ccc(F)c(F)c1 (centres unmarked) [Example 2-1, 1-{(3,4-difluorophenyl)[4-(1H,1′H-spiro[furo[3,4-c]pyridine-3,4′-piperidin]-1′-ylmethyl)phenyl]methyl}pyrrolidin-2-one] | 0.26 |
